For orientation: IC50 means the concentration that inhibits the measured activity by half.

SMILES strings stand for the structures. Where two headings read alike, the source gives them in different places.

The assay concerns the target interaction between GST-MAGEA11 MHD and FAM-PCF11_4 peptide (MAGE-A11:PCF11) (Homo sapiens (Human), UniProt P43364). The experiment in a line: TR-FRET dose response competition assay for disruption of MAGE-A11:PCF11 binding. In a few lines:
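Competition TR-FRET at room temperature in 50 mM Tris pH 7.5, 20 mM MgCl2, 0.1 mg/ml BSA, 1 mM DTT: final 5 nM GST-MAGEA11 MHD, 5 nM Tb-anti-GST, 200 nM FAM-PCF11_4, 90 min. Ratio 520/490 nm converted to % inhibition; IC50 from sigmoidal fit.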
A general note: Time-resolved FRET reads energy transfer from a long-lived donor to a nearby acceptor.

[1] abbreviates: Table 8, representative compounds, read-out: TR-FRET IC50.
[2] abbreviates: Dose response TR-FRET screening of nine scaffold groups against MAGE-A11:PCF11, read-out: consensus IC50.
Setting [3] is: Table 5, dose response TR-FRET screening of 59 quinoline compounds against MAGE-A11:PCF11, read-out: TR-FRET IC50.
Where [4] appears, read: Table 6, 4-aminoquinoline compounds, read-out: TR-FRET, IC50.
Where [5] appears, read: read-out: IC50 by TR-FRET for disrupting MAGE-A11:PCF11 interaction.

Chain of interaction between GST-MAGEA11 MHD and FAM-PCF11_4 peptide (MAGE-A11:PCF11) (P43364 218-429): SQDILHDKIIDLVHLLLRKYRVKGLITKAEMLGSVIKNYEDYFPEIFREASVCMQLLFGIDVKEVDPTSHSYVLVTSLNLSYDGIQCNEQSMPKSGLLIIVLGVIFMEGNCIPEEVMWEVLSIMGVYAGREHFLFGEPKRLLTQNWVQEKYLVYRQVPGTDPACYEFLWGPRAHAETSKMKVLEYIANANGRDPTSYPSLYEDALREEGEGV

On to `COc1cccc(CNCCCNc2ccnc3cc(-c4cc(C(F)(F)F)cc(C(F)(F)F)c4)ccc23)c1O` [SJ000311271], for which, under setting [1], the IC50 is 69.9 µM. On to `FC(F)(F)c1cc(-c2ccc3c(NCCCNCc4cccc5c4OCO5)ccnc3c2)cc(C(F)(F)F)c1` [SJ000311272-1], for which the half-maximal inhibitory concentration (IC50) under setting [2] came out at 9.02 µM. Regarding `FC(F)(F)c1cc(-c2ccc3c(NCCCNCc4cccc5c4OCO5)ccnc3c2)cc(C(F)(F)F)c1` [SJ000311272], the half-inhibitory concentration (IC50) under setting [1] came to 9.02 µM.

On to `COc1ccc(F)cc1CNCCCNc1ccnc2cc(-c3cc(C(F)(F)F)cc(C(F)(F)F)c3)ccc12` [SJ000311273-1], for which the IC50 under setting [2] is 7.69 µM. For `COc1ccc(F)cc1CNCCCNc1ccnc2cc(-c3cc(C(F)(F)F)cc(C(F)(F)F)c3)ccc12` [SJ000311273], the half-maximal inhibitory concentration (IC50) under setting [1] was 7.69 µM. Turning to `c1coc(CNCCCNc2ccnc3cc(-c4cccc5ccccc45)ccc23)c1` [SJ000311274-1], the IC50 under setting [3] was > 70 µM. Take `COc1cccc(CNCCCNc2ccnc3cc(-c4cccc5ccccc45)ccc23)c1O` [SJ000311275-1]: the concentration for half-maximal inhibition (IC50) under setting [2] worked out at 16 µM.

Regarding `COc1cccc(CNCCCNc2ccnc3cc(C4=CC=CC5=CC=CC=CC54)ccc23)c1O` (centres unmarked) [SJ000311275], under setting [1], the 50% inhibitory concentration (IC50) was found to be 16 µM. On to `c1cc(CNCCCNc2ccnc3cc(-c4cccc5ccccc45)ccc23)c2c(c1)OCO2` [SJ000311276-1], for which the 50% inhibitory concentration (IC50) under setting [2] worked out at 31.2 µM. With `c1cc(CNCCCNc2ccnc3cc(-c4cccc5ccccc45)ccc23)c2c(c1)OCO2` [SJ000311276], the IC50 under setting [1] came to 31.2 µM. With `COc1ccc(F)cc1CNCCCNc1ccnc2cc(-c3cccc4ccccc34)ccc12` [SJ000311277-1], the IC50 under setting [2] was 10.3 µM.

Consider `COc1ccc(F)cc1CNCCCNc1ccnc2cc(-c3cccc4ccccc34)ccc12` [SJ000311277], for which the concentration for half-maximal inhibition (IC50) under setting [1] is 10.3 µM.

As to `FC(F)(F)c1ccc(-c2ccc3c(NCCCNCc4ccco4)ccnc3c2)cc1` [SJ000311278-1], the IC50 under setting [3] was 22.7 µM. For `COc1cccc(CNCCCNc2ccnc3cc(-c4ccc(C(F)(F)F)cc4)ccc23)c1O` [SJ000311279-1], under setting [2], the IC50 came to 9.52 µM. In the case of `COc1cccc(CNCCCNc2ccnc3cc(-c4ccc(C(F)(F)F)cc4)ccc23)c1O` [SJ000311279], under setting [1], the IC50 came out at 9.52 µM. As to `FC(F)(F)c1ccc(-c2ccc3c(NCCCNCc4cccc5c4OCO5)ccnc3c2)cc1` [SJ000311280-01], the IC50 under setting [4] came out at 4.07 µM, the IC50 under setting [1] stood at 15.7 µM and the 50% inhibitory concentration (IC50) under setting [5] worked out at 4.07 µM. Regarding `COc1ccc(F)cc1CNCCCNc1ccnc2cc(-c3ccc(C(F)(F)F)cc3)ccc12` [SJ000311281-01], the half-maximal inhibitory concentration (IC50) under setting [4] came to 5.58 µM, the IC50 under setting [1] was 13.4 µM and the IC50 under setting [5] came to 5.58 µM. Take `COc1cccc(CNCCCNc2ccnc3cc(-c4ccccc4)ccc23)c1O` [SJ000311283-1]: the IC50 under setting [2] was found to be 24.1 µM. Turning to `COc1cccc(CNCCCNc2ccnc3cc(-c4ccccc4)ccc23)c1O` [SJ000311283], under setting [1], the IC50 came out at 24.1 µM. As to `c1ccc(-c2ccc3c(NCCCNCc4cccc5c4OCO5)ccnc3c2)cc1` [SJ000311284-01], the 50% inhibitory concentration (IC50) under setting [4] turned out to be 20.6 µM, the IC50 under setting [1] amounted to 22.2 µM and the IC50 under setting [5] came out at 20.6 µM. As to `COc1ccc(F)cc1CNCCCNc1ccnc2cc(-c3ccccc3)ccc12` [SJ000311285-1], the IC50 under setting [2] was 28.2 µM. `COc1ccc(F)cc1CNCCCNc1ccnc2cc(-c3ccccc3)ccc12` [SJ000311285]: the half-maximal inhibitory concentration (IC50) under setting [1] came out at 28.2 µM. On to `COc1cccc(CNCCCNc2ccnc3cc(-c4ccc(C(C)(C)C)cc4)ccc23)c1O` [SJ000311287-1], for which, under setting [2], the concentration for half-maximal inhibition (IC50) was 4.67 µM.

`COc1cccc(CNCCCNc2ccnc3cc(-c4ccc(C(C)(C)C)cc4)ccc23)c1O` [SJ000311287]: the IC50 under setting [1] came to 4.67 µM. Consider `CC(C)(C)c1ccc(-c2ccc3c(NCCCNCc4cccc5c4OCO5)ccnc3c2)cc1` [SJ000311288-1], for which, under setting [2], the IC50 is 6.87 µM. On to `CC(C)(C)c1ccc(-c2ccc3c(NCCCNCc4cccc5c4OCO5)ccnc3c2)cc1` [SJ000311288], for which the IC50 under setting [1] was 6.87 µM.

Regarding `COc1ccc(F)cc1CNCCCNc1ccnc2cc(-c3ccc(C(C)(C)C)cc3)ccc12` [SJ000311289-1], the half-maximal inhibitory concentration (IC50) under setting [2] came to 4.62 µM.

`COc1ccc(F)cc1CNCCCNc1ccnc2cc(-c3ccc(C(C)(C)C)cc3)ccc12` [SJ000311289]: the IC50 under setting [1] was 2.04 µM. For the compound `c1coc(CNCCCNc2ccnc3cc(-c4ccc5c(c4)OCO5)ccc23)c1` [SJ000311290-1], under setting [3], the IC50 was > 70 µM. As to `COc1cccc(CNCCCNc2ccnc3cc(-c4ccc5c(c4)OCO5)ccc23)c1O` [SJ000311291-1], the 50% inhibitory concentration (IC50) under setting [2] is 24.6 µM. As for `COc1cccc(CNCCCNc2ccnc3cc(-c4ccc5c(c4)OCO5)ccc23)c1O` [SJ000311291], the IC50 under setting [1] is 24.6 µM. `c1cc(CNCCCNc2ccnc3cc(-c4ccc5c(c4)OCO5)ccc23)c2c(c1)OCO2` [SJ000311292-1]: the IC50 under setting [2] turned out to be 30.5 µM.

On to `c1cc(CNCCCNc2ccnc3cc(-c4ccc5c(c4)OCO5)ccc23)c2c(c1)OCO2` [SJ000311292], for which the IC50 under setting [1] came out at 30.5 µM. In the case of `COc1ccc(F)cc1CNCCCNc1ccnc2cc(-c3ccc4c(c3)OCO4)ccc12` [SJ000311293-1], the IC50 under setting [2] is 29.9 µM. For `COc1ccc(F)cc1CNCCNc1ccnc2cc(-c3ccc4c(c3)OCO4)ccc12` [SJ000311293], the IC50 under setting [1] was determined as 29.9 µM. `COc1ccc(-c2ccc3c(NCCCNCc4cccc(OC)c4O)ccnc3c2)cc1` [SJ000311295-1]: under setting [2], the IC50 came to 69.9 µM. For `COc1ccc(-c2ccc3c(NCCCNCc4cccc(OC)c4O)ccnc3c2)cc1` [SJ000311295], under setting [1], the half-inhibitory concentration (IC50) was 69.9 µM.

As for `COc1ccc(-c2ccc3c(NCCCNCc4cccc5c4OCO5)ccnc3c2)cc1` [SJ000311296-1], the IC50 under setting [2] is 69.9 µM.

For the compound `COc1ccc(-c2ccc3c(NCCCNCc4cccc5c4OCO5)ccnc3c2)cc1` [SJ000311296], under setting [1], the IC50 came to 69.9 µM. For the compound `COc1ccc(-c2ccc3c(NCCCNCc4cc(F)ccc4OC)ccnc3c2)cc1` [SJ000311297-1], the IC50 under setting [2] came out at 69.9 µM. As to `COc1ccc(-c2ccc3c(NCCCNCc4cc(F)ccc4OC)ccnc3c2)cc1` [SJ000311297], under setting [1], the IC50 came to 69.9 µM.

For `COc1cccc(CNCCCNc2ccnc3cc(Cc4cccc(C(F)(F)F)c4)ccc23)c1O` [SJ000311299-1], under setting [2], the concentration for half-maximal inhibition (IC50) was 27.5 µM. For the compound `COc1cccc(CNCCCNc2ccnc3cc(Cc4cccc(C(F)(F)F)c4)ccc23)c1O` [SJ000311299], under setting [1], the concentration for half-maximal inhibition (IC50) turned out to be 27.5 µM. For the compound `FC(F)(F)c1cccc(Cc2ccc3c(NCCCNCc4cccc5c4OCO5)ccnc3c2)c1` [SJ000311300-1], under setting [2], the IC50 is 12.8 µM. With `FC(F)(F)c1cccc(Cc2ccc3c(NCCCNCc4cccc5c4OCO5)ccnc3c2)c1` [SJ000311300], the half-inhibitory concentration (IC50) under setting [1] is 12.8 µM.

On to `COc1ccc(F)cc1CNCCCNc1ccnc2cc(Cc3cccc(C(F)(F)F)c3)ccc12` [SJ000311301-2], for which the IC50 under setting [2] was determined as 22.1 µM. Consider `COc1ccc(F)cc1CNCCCNc1ccnc2cc(Cc3cccc(C(F)(F)F)c3)ccc12` [SJ000311301], for which the IC50 under setting [1] is 22.2 µM. Turning to `COc1cccc(CNCCCNc2ccnc3cc(Cc4ccc(C#N)cc4)ccc23)c1O` [SJ000311303-1], the half-maximal inhibitory concentration (IC50) under setting [2] stood at 51 µM. Turning to `COC1CCCC(CNCCCNc2ccnc3cc(Cc4ccc(C#N)cc4)ccc23)C1O` (centres unmarked) [SJ000311303], the half-maximal inhibitory concentration (IC50) under setting [1] came to 51 µM. `N#Cc1ccc(Cc2ccc3c(NCCCNCc4cccc5c4OCO5)ccnc3c2)cc1` [SJ000311304-1]: the concentration for half-maximal inhibition (IC50) under setting [2] came to 66 µM. Consider `N#Cc1ccc(Cc2ccc3c(NCCCNCc4cccc5c4OCO5)ccnc3c2)cc1` [SJ000311304], for which the IC50 under setting [1] worked out at 66 µM. `COc1ccc(F)cc1CNCCCNc1ccnc2cc(Cc3ccc(C#N)cc3)ccc12` [SJ000311305-1]: the IC50 under setting [2] is 69.9 µM. Regarding `COc1ccc(F)cc1CNCCCNc1ccnc2cc(Cc3ccc(C#N)cc3)ccc12` [SJ000311305], the concentration for half-maximal inhibition (IC50) under setting [1] is 69.9 µM. Turning to `c1ccc(Cc2ccc3c(NCCCNCc4ccco4)ccnc3c2)cc1` [SJ000311306-2], the IC50 under setting [3] worked out at 32.2 µM. `COc1cccc(CNCCCNc2ccnc3cc(Cc4ccccc4)ccc23)c1O` [SJ000311307-1]: the IC50 under setting [2] is 69.9 µM. As for `COc1cccc(CNCCCNc2ccnc3cc(Cc4ccccc4)ccc23)c1O` [SJ000311307], the half-inhibitory concentration (IC50) under setting [1] stood at 69.9 µM.

In the case of `c1ccc(Cc2ccc3c(NCCCNCc4cccc5c4OCO5)ccnc3c2)cc1` [SJ000311308-1], the IC50 under setting [2] amounted to 46.1 µM. As for `c1ccc(Cc2ccc3c(NCCCNCc4cccc5c4OCO5)ccnc3c2)cc1` [SJ000311308], under setting [1], the IC50 stood at 46.1 µM. As for `COc1ccc(F)cc1CNCCCNc1ccnc2cc(Cc3ccccc3)ccc12` [SJ000311309-1], the IC50 under setting [2] amounted to 18.3 µM. With `COc1ccc(F)cc1CNCCCNc1ccnc2cc(Cc3ccccc3)ccc12` [SJ000311309], the half-inhibitory concentration (IC50) under setting [1] is 18.3 µM. As to `COc1cc(Cc2ccc3c(NCCCNCc4cccc(OC)c4O)ccnc3c2)cc(OC)c1` [SJ000311311-1], the half-inhibitory concentration (IC50) under setting [2] amounted to 33.6 µM. For `COc1cc(Cc2ccc3c(NCCCNCc4cccc(OC)c4O)ccnc3c2)cc(OC)c1` [SJ000311311], the IC50 under setting [1] amounted to 33.6 µM. As to `COc1cc(Cc2ccc3c(NCCCNCc4cccc5c4OCO5)ccnc3c2)cc(OC)c1` [SJ000311312-1], under setting [2], the IC50 amounted to 31.3 µM. Take `COc1cc(Cc2ccc3c(NCCCNCc4cccc5c4OCO5)ccnc3c2)cc(OC)c1` [SJ000311312]: the half-maximal inhibitory concentration (IC50) under setting [1] is 31.3 µM.

For `COc1cc(Cc2ccc3c(NCCCNCc4cc(F)ccc4OC)ccnc3c2)cc(OC)c1` [SJ000311313-1], the IC50 under setting [2] came out at 33.8 µM. `COc1cc(Cc2ccc3c(NCCCNCc4cc(F)ccc4OC)ccnc3c2)cc(OC)c1` [SJ000311313]: the half-maximal inhibitory concentration (IC50) under setting [1] is 33.8 µM. `Clc1cccc(Cl)c1Cc1ccc2c(NCCCNCc3ccco3)ccnc2c1` [SJ000311314-1]: the IC50 under setting [3] turned out to be 38.4 µM. On to `COc1cccc(CNCCCNc2ccnc3cc(Cc4c(Cl)cccc4Cl)ccc23)c1O` [SJ000311315-1], for which the IC50 under setting [2] worked out at 13.8 µM.
